This passage reports Ki and IC50 results from patent US8901313B2, “6,5-heterocyclic propargylic alcohol compounds and uses therefor” (Genentech, Inc., priority 2011, dated 2014).

Assay [1] has as its target T1, nuclear factor-kappa B (NF-kB)-inducing kinase (NIK) (Homo sapiens, UniProt Q99558).
T1 construct: made in house; host or cells: baculovirus-infected insect cells
Briefly: NIK Enzyme Inhibition Assay (Transcreener ADP assay). The format is biochemical. The settings on record: purified NIK 0.2-1 nM, 10 uM ATP, fluorescence polarization, Morrison's quadratic equation; read-out: inhibitory value (Ki) for NIK.

Assay [2] concerns NF-kB signaling through NIK in human embryonic kidney 293 cells. Briefly: 293-NIK NF-kB-Luciferase reporter assay. The settings on record: HEK293, 293 cells with tetracycline-inducible NIK, 1 ug/mL doxycycline, 24 hours, read-out: inhibitory value (IC50) for 293-NIK NF-kB-Luciferase activity. It is filed as cell-based. The text has this:
(1) The first assay was used to profile whether a test compound can inhibit the NF-kB signally through NIK inhibition without affecting cell viability. In this assay, human embryonic kidney 293 cells was stably transfected with a tetracycline-inducible NIK DNA construct containing a cytomegalovirus promoter plus two reporter DNA constructs. One reporter encoded firefly luciferase under the control of three repeats of an NF-kB response element from the ELAM-1 gene and reflects the level of NIK activity in the cells, whereas the other reporter constitutively expressed Renilla luciferase under the control of the herpes simplex virus thymidine kinase promoter and served as a general measure of cell viability. Cells were incubated with different concentrations of compounds (0.2% DMSO final) in medium containing 1 ug/mL doxycycline and 10% tet-system approved fetal bovine serum (Clontech) for 24 hours, after which the reporters' signals were detected using the Dual Glo luciferase detection system (Promega) according to the vendor's protocol. The compounds listed in Table 1 have the corresponding inhibitory value (IC50 in micromolar) for 293-NIK NF-kB-Luciferase activity (values for compounds are presented in the same order as found in Table 1): na, 0.059, na, na, na, 0.105, 0.027, na, 20, 1.2, na, 1.8, 0.0231, 0.879, 0.0361, 0.582, na, 0.142, na, 0.403, 0.059, 0.0331, na, na, 0.0573, 1.5, na, na, 0.0722, na, na, 0.589, 12.7, 3.7, 14.9, na, 0.707, 1, 0.0311, 0.332, 0.309, 0.0142, 0.051, 2.8, 0.129, na, na, 1.5, na, na, na, 1.3, 0.062, 20, 0.31, 0.104, 0.091, 0.037, 0.085, 0.279, na, 0.305, 0.064, 0.332, 0.133, 0.168, 0.217, 0.553, na and na.

T1 sequence (Q99558 whole entry): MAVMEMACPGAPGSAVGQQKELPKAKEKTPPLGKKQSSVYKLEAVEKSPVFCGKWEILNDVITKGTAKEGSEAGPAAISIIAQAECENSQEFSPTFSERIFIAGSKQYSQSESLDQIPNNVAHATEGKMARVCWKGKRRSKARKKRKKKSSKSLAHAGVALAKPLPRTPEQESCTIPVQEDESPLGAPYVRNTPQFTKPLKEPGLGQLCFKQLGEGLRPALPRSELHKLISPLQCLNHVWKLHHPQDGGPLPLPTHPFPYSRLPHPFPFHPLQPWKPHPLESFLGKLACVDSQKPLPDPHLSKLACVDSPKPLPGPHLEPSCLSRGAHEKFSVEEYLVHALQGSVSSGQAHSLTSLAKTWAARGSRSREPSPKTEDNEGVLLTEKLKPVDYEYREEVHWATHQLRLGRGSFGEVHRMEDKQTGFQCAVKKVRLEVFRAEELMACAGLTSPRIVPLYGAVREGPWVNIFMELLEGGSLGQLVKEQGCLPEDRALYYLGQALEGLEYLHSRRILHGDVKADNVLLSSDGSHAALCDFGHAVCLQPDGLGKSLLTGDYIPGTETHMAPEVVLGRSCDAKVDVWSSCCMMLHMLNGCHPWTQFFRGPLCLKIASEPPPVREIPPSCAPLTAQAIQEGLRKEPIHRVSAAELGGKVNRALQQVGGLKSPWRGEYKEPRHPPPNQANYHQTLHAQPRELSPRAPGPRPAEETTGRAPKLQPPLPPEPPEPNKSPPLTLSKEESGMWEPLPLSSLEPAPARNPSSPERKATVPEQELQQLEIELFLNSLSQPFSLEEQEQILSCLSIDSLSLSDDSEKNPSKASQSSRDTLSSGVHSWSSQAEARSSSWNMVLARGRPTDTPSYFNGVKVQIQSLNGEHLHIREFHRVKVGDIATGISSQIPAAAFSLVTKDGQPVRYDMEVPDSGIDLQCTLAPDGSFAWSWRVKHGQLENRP

As for `N#Cc1ccc2cnn(-c3nc(N)ncc3N)c2c1` [Example T1-9, 1-(2,5-diaminopyrimidin-4-yl)-1H-indazole-6-carbonitrile], in assay [1], the Ki worked out at 45.9 nM. Moreover, the IC50 in assay [2] was found to be 20000 nM.
Consider `CC(O)(C#Cc1ccc2ncn(-c3ccnc(N)n3)c2c1)c1cn[nH]c1` (centres unmarked) [Example T1-33, 4-(1-(2-aminopyrimidin-4-yl)-1H-benzo[d]imidazol-6-yl)-2-(1H-pyrazol-4-yl)but-3-yn-2-ol], for which, in assay [1], the Ki was 23 nM. Besides, the IC50 in assay [2] amounted to 12700 nM.
Consider `CC(O)(C#Cc1ccc2ncn(-c3ccnc(N)n3)c2c1)C1CC1` (centres unmarked) [Example T1-34, 4-(1-(2-aminopyrimidin-4-yl)-1H-benzo[d]imidazol-6-yl)-2-cyclopropylbut-3-yn-2-ol], for which the Ki in assay [1] stood at 92.1 nM. For the same compound, in assay [2], the IC50 amounted to 3700 nM.
Turning to `CC(O)(C#Cc1ccc2cnn(-c3ccnc(N)n3)c2c1)c1cn[nH]c1` (centres unmarked) [Example T1-35, 4-(1-(2-aminopyrimidin-4-yl)-1H-indazol-6-yl)-2-(1H-pyrazol-4-yl)but-3-yn-2-ol], in assay [1], the Ki was found to be 18 nM. In addition, in assay [2], the IC50 worked out at 14900 nM.
In the same order, the values of `CC(O)(C#Cc1ccc2ncn(-c3ccnc(N)n3)c2c1)CF` (centres unmarked) [Example T1-37, 4-(1-(2-aminopyrimidin-4-yl)-1H-benzo[d]imidazol-6-yl)-1-fluoro-2-methylbut-3-yn-2-ol] are 2.3 nM and 707 nM.
Regarding `Cc1nnc(C(C)(O)C#Cc2ccc3c(C(=O)N4CCOCC4)nn(-c4ccnc(N)n4)c3c2)o1` (centres unmarked) [Example T1.1-137, [1-(2-aminopyrimidin-4-yl)-6-[3-hydroxy-3-(5-methyl-1,3,4-oxadiazol-2-yl)but-1-ynyl]indazol-3-yl]-morpholino-methanone], in assay [1], the Ki was 7 nM.
Regarding `COCCN(C)C(=O)c1nn(-c2ccnc(N)n2)c2cc(C#CC(C)(O)c3ncccn3)ccc12` (centres unmarked) [Example T1.1-138, 1-(2-aminopyrimidin-4-yl)-6-(3-hydroxy-3-pyrimidin-2-yl-but-1-ynyl)-N-(2-methoxyethyl)-N-methyl-indazole-3-carboxamide], the Ki in assay [1] came out at 0.2 nM.
Regarding `CC(O)(C#Cc1ccc2c(C(=O)N3CC(F)(F)C3)nn(-c3ccnc(N)n3)c2c1)c1ncccn1` (centres unmarked) [Example T1.1-139, [1-(2-aminopyrimidin-4-yl)-6-(3-hydroxy-3-pyrimidin-2-yl-but-1-ynyl)indazol-3-yl]-(3,3-difluoroazetidin-1-yl)methanone], the Ki in assay [1] worked out at 20 nM.
Same read-out and setting: the value for `CC(O)(C#Cc1ccc2c(C(=O)N3CC4CC4C3)nn(-c3ccnc(N)n3)c2c1)c1ncccn1` (centres unmarked) [Example T1.1-140, [1-(2-aminopyrimidin-4-yl)-6-(3-hydroxy-3-pyrimidin-2-yl-but-1-ynyl)indazol-3-yl]-(3-azabicyclo[3.1.0]hexan-3-yl)methanone] was 5.28 nM; that for `CN(C(=O)c1nn(-c2ccnc(N)n2)c2cc(C#CC(C)(O)c3ncccn3)ccc12)c1ccccn1` (centres unmarked) [Example T1.1-142, 1-(2-aminopyrimidin-4-yl)-6-(3-hydroxy-3-pyrimidin-2-yl-but-1-ynyl)-N-methyl-N-(2-pyridyl)indazole-3-carboxamide] was 7 nM.
With `CC(O)(C#Cc1ccc2c(C(=O)Nc3cccnc3)nn(-c3ccnc(N)n3)c2c1)c1ncccn1` (centres unmarked) [Example T1.1-143, 1-(2-aminopyrimidin-4-yl)-6-(3-hydroxy-3-pyrimidin-2-yl-but-1-ynyl)-N-(3-pyridyl) indazole-3-carboxamide], the Ki in assay [1] came out at 2 nM.
Turning to `CC(O)(C#Cc1ccc2c(C(=O)N3CCOCC3)nn(-c3ccnc(N)n3)c2c1)c1ncco1` (centres unmarked) [Example T1.1-144, [1-(2-aminopyrimidin-4-yl)-6-(3-hydroxy-3-oxazol-2-yl-but-1-ynyl)indazol-3-yl]-morpholino-methanone], the Ki in assay [1] was 3 nM.
As for `CC(O)(C#Cc1ccc2c(C(=O)N3CCCC(O)C3)nn(-c3ccnc(N)n3)c2c1)c1ncccn1` (centres unmarked) [Example T1.1-145, [1-(2-aminopyrimidin-4-yl)-6-(3-hydroxy-3-pyrimidin-2-yl-but-1-ynyl)indazol-3-yl]-(3-hydroxy-1-piperidyl)methanone], the Ki in assay [1] was determined as 11 nM.
Turning to `CC(O)(C#Cc1ccc2c(C(=O)N3CC(O)C3)nn(-c3ccnc(N)n3)c2c1)c1ncccn1` (centres unmarked) [Example T1.1-146, [1-(2-aminopyrimidin-4-yl)-6-(3-hydroxy-3-pyrimidin-2-yl-but-1-ynyl)indazol-3-yl]-(3-hydroxyazetidin-1-yl)methanone], in assay [1], the Ki was determined as 3400 nM.
As to `CC(O)(C#Cc1ccc2c(C(=O)N3CC(C#N)C3)nn(-c3ccnc(N)n3)c2c1)c1ncccn1` (centres unmarked) [Example T1.1-147, 1-[1-(2-aminopyrimidin-4-yl)-6-(3-hydroxy-3-pyrimidin-2-yl-but-1-ynyl)indazole-3-carbonyl]azetidine-3-carbonitrile], the Ki in assay [1] was 4 nM.
Still for that read-out and setting: the value for `CC(O)(C#Cc1ccc2c(C(=O)NC3COC3)nn(-c3ccnc(N)n3)c2c1)c1ncccn1` (centres unmarked) [Example T1.1-148, 1-(2-aminopyrimidin-4-yl)-6-(3-hydroxy-3-pyrimidin-2-yl-but-1-ynyl)-N-(oxetan-3-yl)indazole-3-carboxamide] was 0.1 nM; that for `CC(O)(C#Cc1ccc2c(C(=O)N3CCOCC3)nn(-c3ccnc(N)n3)c2c1)c1ncccn1` (centres unmarked) [Example T1.1-149, [1-(2-aminopyrimidin-4-yl)-6-(3-hydroxy-3-pyrimidin-2-yl-but-1-ynyl)indazol-3-yl]-morpholino-methanone] was 0.3 nM.
Regarding `CC(O)(C#Cc1ccc2c(C(=O)NCC#N)nn(-c3ccnc(N)n3)c2c1)c1ncccn1` (centres unmarked) [Example T1.134, 1-(2-aminopyrimidin-4-yl)-N-(cyanomethyl)-6-(3-hydroxy-3-pyrimidin-2-yl-but-1-ynyl) indazole-3-carboxamide], the Ki in assay [1] worked out at 2 nM.
